The results in this text go back to publication PMC7180622, “PET Imaging of the Adenosine A2A Receptor in the Rotenone-Based Mouse Model of Parkinson’s Disease with [^18F]FESCH Synthesized by a Simplified Two-Step One-Pot Radiolabeling Strategy” (Molecules, 2020).

The target of assay [1] is T1, adenosine A1 receptor (hA1R) (Homo sapiens, UniProt P30542).
T1 construct: gene ADORA1; membrane homogenates of stably transfected CHO-K1 cells
T1 sequence (P30542 1-326): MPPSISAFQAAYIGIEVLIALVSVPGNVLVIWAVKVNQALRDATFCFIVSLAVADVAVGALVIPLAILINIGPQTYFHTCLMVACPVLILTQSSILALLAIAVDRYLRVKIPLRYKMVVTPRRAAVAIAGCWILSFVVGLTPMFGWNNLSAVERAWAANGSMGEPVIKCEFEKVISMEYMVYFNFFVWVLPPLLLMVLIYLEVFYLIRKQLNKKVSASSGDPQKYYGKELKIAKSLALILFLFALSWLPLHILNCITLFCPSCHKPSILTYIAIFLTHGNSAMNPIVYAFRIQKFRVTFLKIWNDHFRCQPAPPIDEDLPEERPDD
Put plainly: radioligand displacement with [3H]DPCPX. The format is binding. In general terms: In a radioligand displacement assay an active substance lowers the binding of a labelled ligand.

Assay [2] addresses T2, adenosine A2A receptor (hA2AR) (Homo sapiens, UniProt P29274).
T2 construct: gene ADORA2A; membrane homogenates of stably transfected CHO-K1 cells
The experiment in a line: radioligand displacement with [3H]ZM241385. The format is binding.

What is called Ki is the equilibrium dissociation constant of an inhibitor or competing ligand from its target.

Each structure is given as a SMILES string.

T2 sequence (P29274 whole entry): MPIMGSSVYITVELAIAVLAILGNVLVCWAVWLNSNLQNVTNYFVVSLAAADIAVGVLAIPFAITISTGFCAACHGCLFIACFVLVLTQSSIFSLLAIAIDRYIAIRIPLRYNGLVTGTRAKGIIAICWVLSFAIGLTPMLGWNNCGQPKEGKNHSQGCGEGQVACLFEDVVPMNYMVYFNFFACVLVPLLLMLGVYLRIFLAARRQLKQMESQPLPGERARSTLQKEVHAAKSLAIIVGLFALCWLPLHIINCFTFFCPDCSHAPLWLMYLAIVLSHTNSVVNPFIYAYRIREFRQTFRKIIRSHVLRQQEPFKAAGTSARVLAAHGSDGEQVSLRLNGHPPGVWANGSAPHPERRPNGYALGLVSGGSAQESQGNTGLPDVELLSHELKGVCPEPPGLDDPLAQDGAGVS

`Nc1nc2c(cnn2CCCc2ccc(OCCF)cc2)c2nc(-c3ccco3)nn12` [FESCH]: the Ki came to 203 ± 40 nM in assay [1] and 0.6 ± 0.1 nM in assay [2].
